pEC50: −log10 of the molar value.
Assays:
[1] = Cytotoxicity assay in MT-4 cells; format: cell-based; details: human; uninfected MT-4 cells, 5 days incubation, Cell Titer Glo; read-out: MT4 CC50
Outline: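 Uninfected MT-4 cells exposed to serially diluted compounds in RPMI with 10% FBS for 5 days at 37 °C. Viability by Cell Titer Glo chemiluminescence. Puromycin […] as baseline cytotoxicity control.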

[2] = system: HIV-1 (IIIB); assay: Antiviral assay in MT-4 cells; format: cell-based; details: Human immunodeficiency virus 1, MT4, 120 h; HIV-1 IIIB in MT-4 cells, 5 days incubation, Cell Titer Glo; read-out: MT4 EC50
Outline: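 HIV-1 IIIB-infected MT-4 cells (fresh 1:250 virus stock dilution; mock-infected controls) incubated 5 days at 37 °C with serially diluted compounds in RPMI/10% FBS; 5 μM AZT as positive control. Cell viability read by CellTiter-Glo luminescence as measure of protection from viral replication.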

| SMILES | CC50 at 5 days [1] [nM] | pEC50 [2] |
| --- | --- | --- |
| CCCCCCCCCCCCOC(=O)OCOc1c2n(cc(C(=O)NCc3ccc(F)cc3F)c1=O)[C@@H]1CN(C2=O)[C@@H](C)CC[C@]12CC(C)=NO2 [Example 190, (((3′S,5S,7′R)-10′-((2,4-difluorobenzyl)carbamoyl)-3,3′-dimethyl-1′,11′-dioxo-1′,4′,5′,11′-tetrahydro-3′H,4H,7′H-spiro[isoxazole-5,6′-[2,7]methanopyrido[1,2-a][1,4]diazonin]-12′-yl)oxy)methyl dodecyl carbonate] | ≥ 50000 | 9.31 |
| CCCCCCCCCCOC(=O)Oc1c2n(cc(C(=O)NCc3ccc(F)cc3F)c1=O)[C@@H]1CN(C2=O)[C@@H](C)CC[C@]12CC(OC)=NO2 [Example 140, decyl ((3′S,5S,7′R)-10′-((2,4-difluorobenzyl)carbamoyl)-3-methoxy-3′-methyl-1′,11′-dioxo-1′,4′,5′,11′-tetrahydro-3′H,4H,7′H-spiro[isoxazole-5,6′-[2,7]methanopyrido[1,2-a][1,4]diazonin]-12′-yl) carbonate] | 15900 | 8.47 |
| COC1=NO[C@@]2(CC[C@H](C)N3C[C@H]2n2cc(C(=O)NCc4ccc(F)cc4F)c(=O)c(OCOC(=O)CCCCCCC(C)C)c2C3=O)C1 [Example 119, (((3′S,5S,7′R)-10′-((2,4-difluorobenzyl)carbamoyl)-3-methoxy-3′-methyl-1′,11′-dioxo-1′,4′,5′,11′-tetrahydro-3′H,4H,7′H-spiro[isoxazole-5,6′-[2,7]methanopyrido[1,2-a][1,4]diazonin]-12′-yl)oxy)methyl 8-methylnonanoate] | 43800 | 8.54 |
| CC1=NO[C@@]2(CC[C@H](C)N3C[C@H]2n2cc(C(=O)NCc4ccc(F)cc4F)c(=O)c(OCOC(=O)CCCCCCC(C)C)c2C3=O)C1 [Example 120, (((3′S,5S,7′R)-10′-((2,4-difluorobenzyl)carbamoyl)-3,3′-dimethyl-1′,11′-dioxo-1′,4′,5′,11′-tetrahydro-3′H,4H,7′H-spiro[isoxazole-5,6′-[2,7]methanopyrido[1,2-a][1,4]diazonin]-12′-yl)oxy)methyl 8-methylnonanoate] | 42300 | 8.69 |
| COC1=NO[C@@]2(CC[C@H](C)N3C[C@H]2n2cc(C(=O)NCc4ccc(F)cc4F)c(=O)c(OCOC(=O)OCCCC(C)C)c2C3=O)C1 [Example 204, (((3′S,5S,7′R)-10′-((2,4-difluorobenzyl)carbamoyl)-3-methoxy-3′-methyl-1′,11′-dioxo-1′,4′,5′,11′-tetrahydro-3′H,4H,7′H-spiro[isoxazole-5,6′-[2,7]methanopyrido[1,2-a][1,4]diazonin]-12′-yl)oxy)methyl (4-methylpentyl) carbonate] | 29800 | 8.42 |
| CCCCCCC(=O)Oc1c2n(cc(C(=O)NCc3ccc(F)cc3F)c1=O)[C@@H]1CN(C2=O)[C@@H](C)CC[C@]12CC(C)=NO2 [Example 39, (3′S,5S,7′R)-10′-((2,4-difluorobenzyl)carbamoyl)-3,3′-dimethyl-1′,11′-dioxo-1′,4′,5′,11′-tetrahydro-3′H,4H,7′H-spiro[isoxazole-5,6′-[2,7]methanopyrido[1,2-a][1,4]diazonin]-12′-yl heptanoate] | 23700 | 9.12 |
| CCCCCCCOC(=O)OCOc1c2n(cc(C(=O)NCc3ccc(F)cc3F)c1=O)[C@@H]1CN(C2=O)[C@@H](C)CC[C@]12CC(C)=NO2 [Example 183, (((3′S,5S,7′R)-10′-((2,4-difluorobenzyl)carbamoyl)-3,3′-dimethyl-1′,11′-dioxo-1′,4′,5′,11′-tetrahydro-3′H,4H,7′H-spiro[isoxazole-5,6′-[2,7]methanopyrido[1,2-a][1,4]diazonin]-12′-yl)oxy)methyl heptyl carbonate] | 11400 | 9.45 |
| CCCCCOC(=O)OCOc1c2n(cc(C(=O)NCc3ccc(F)cc3F)c1=O)[C@@H]1CN(C2=O)[C@@H](C)CC[C@]12CC(C)=NO2 [Example 179, (((3′S,5S,7′R)-10′-((2,4-difluorobenzyl)carbamoyl)-3,3′-dimethyl-1′,11′-dioxo-1′,4′,5′,11′-tetrahydro-3′H,4H,7′H-spiro[isoxazole-5,6′-[2,7]methanopyrido[1,2-a][1,4]diazonin]-12′-yl)oxy)methyl pentyl carbonate] | ≥ 50000 | 9.28 |
| COCCOC(=O)Oc1c2n(cc(C(=O)NCc3ccc(F)cc3F)c1=O)[C@@H]1CN(C2=O)[C@@H](C)CC[C@]12CC(C)=NO2 [Example 9, (3′S,5S,7′R)-10′-((2,4-difluorobenzyl)carbamoyl)-3,3′-dimethyl-1′,11′-dioxo-1′,4′,5′,11′-tetrahydro-3′H,4H,7′H-spiro[isoxazole-5,6′-[2,7]methanopyrido[1,2-a][1,4]diazonin]-12′-yl (2-methoxyethyl) carbonate] | 19600 | 8.79 |
| COC1=NO[C@@]2(CC[C@H](C)N3C[C@H]2n2cc(C(=O)NCc4ccc(F)cc4F)c(=O)c(OC(=O)OCC(C)C)c2C3=O)C1 [Example 149, (3′S,5S,7′R)-10′-((2,4-difluorobenzyl)carbamoyl)-3-methoxy-3′-methyl-1′,11′-dioxo-1′,4′,5′,11′-tetrahydro-3′H,4H,7′H-spiro[isoxazole-5,6′-[2,7]methanopyrido[1,2-a][1,4]diazonin]-12′-yl isobutyl carbonate] | 15900 | 8.66 |
| COC1=NO[C@@]2(CC[C@H](C)N3C[C@H]2n2cc(C(=O)NCc4ccc(F)cc4F)c(=O)c(OC(C)=O)c2C3=O)C1 [Example 28, (3′S,5S,7′R)-10′-((2,4-difluorobenzyl)carbamoyl)-3-methoxy-3′-methyl-1′,11′-dioxo-1′,4′,5′,11′-tetrahydro-3′H,4H,7′H-spiro[isoxazole-5,6′-[2,7]methanopyrido[1,2-a][1,4]diazonin]-12′-yl acetate] | 11600 | 8.77 |
| CCCCCCCCOC(=O)OCOc1c2n(cc(C(=O)NCc3ccc(F)cc3F)c1=O)[C@@H]1CN(C2=O)[C@@H](C)CC[C@]12CC(OC)=NO2 [Example 185, (((3′S,5S,7′R)-10′-((2,4-difluorobenzyl)carbamoyl)-3-methoxy-3′-methyl-1′,11′-dioxo-1′,4′,5′,11′-tetrahydro-3′H,4H,7′H-spiro[isoxazole-5,6′-[2,7]methanopyrido[1,2-a][1,4]diazonin]-12′-yl)oxy)methyl octyl carbonate] | ≥ 50000 | 8.29 |
| CCCCCC(=O)OCOc1c2n(cc(C(=O)NCc3ccc(F)cc3F)c1=O)[C@@H]1CN(C2=O)[C@@H](C)CC[C@]12CC(OC)=NO2 [Example 91, (((3′S,5S,7′R)-10′-((2,4-difluorobenzyl)carbamoyl)-3-methoxy-3′-methyl-1′,11′-dioxo-1′,4′,5′,11′-tetrahydro-3′H,4H,7′H-spiro[isoxazole-5,6′-[2,7]methanopyrido[1,2-a][1,4]diazonin]-12′-yl)oxy)methyl hexanoate] | 37300 | 8.73 |
| COC1=NO[C@@]2(CC[C@H](C)N3C[C@H]2n2cc(C(=O)NCc4ccc(F)cc4F)c(=O)c(OC(=O)CC(C)C)c2C3=O)C1 [Example 54, (3′S,5S,7′R)-10′-((2,4-difluorobenzyl)carbamoyl)-3-methoxy-3′-methyl-1′,11′-dioxo-1′,4′,5′,11′-tetrahydro-3′H,4H,7′H-spiro[isoxazole-5,6′-[2,7]methanopyrido[1,2-a][1,4]diazonin]-12′-yl 3-methylbutanoate] | 19400 | 9.30 |
| CCCCCCCCCCCCCCCCCCOC(=O)OCOc1c2n(cc(C(=O)NCc3ccc(F)cc3F)c1=O)[C@@H]1CN(C2=O)[C@@H](C)CC[C@]12CC(C)=NO2 [Example 196, (((3′S,5S,7′R)-10′-((2,4-difluorobenzyl)carbamoyl)-3,3′-dimethyl-1′,11′-dioxo-1′,4′,5′,11′-tetrahydro-3′H,4H,7′H-spiro[isoxazole-5,6′-[2,7]methanopyrido[1,2-a][1,4]diazonin]-12′-yl)oxy)methyl octadecyl carbonate] | ≥ 50000 | 7.73 |
| CCCCCCCCCCCCCCCCOC(=O)Oc1c2n(cc(C(=O)NCc3ccc(F)cc3F)c1=O)[C@@H]1CN(C2=O)[C@@H](C)CC[C@]12CC(OC)=NO2 [Example 145, (3′S,5S,7′R)-10′-((2,4-difluorobenzyl)carbamoyl)-3-methoxy-3′-methyl-1′,11′-dioxo-1′,4′,5′,11′-tetrahydro-3′H,4H,7′H-spiro[isoxazole-5,6′-[2,7]methanopyrido[1,2-a][1,4]diazonin]-12′-yl hexadecyl carbonate] | ≥ 50000 | 8.23 |
| COCCOCCOC(=O)OCOc1c2n(cc(C(=O)NCc3ccc(F)cc3F)c1=O)[C@@H]1CN(C2=O)[C@@H](C)CC[C@]12CC(OC)=NO2 [Example 4, (((3′S,5S,7′R)-10′-((2,4-difluorobenzyl)carbamoyl)-3-methoxy-3′-methyl-1′,11′-dioxo-1′,4′,5′,11′-tetrahydro-3′H,4H,7′H-spiro[isoxazole-5,6′-[2,7]methanopyrido[1,2-a][1,4]diazonin]-12′-yl)oxy)methyl (2-(2-methoxyethoxy)ethyl) carbonate] | ≥ 50000 | 7.81 |
| CCCCCCC(=O)OCOc1c2n(cc(C(=O)NCc3ccc(F)cc3F)c1=O)[C@@H]1CN(C2=O)[C@@H](C)CC[C@]12CC(C)=NO2 [Example 94, (((3′S,5S,7′R)-10′-((2,4-difluorobenzyl)carbamoyl)-3,3′-dimethyl-1′,11′-dioxo-1′,4′,5′,11′-tetrahydro-3′H,4H,7′H-spiro[isoxazole-5,6′-[2,7]methanopyrido[1,2-a][1,4]diazonin]-12′-yl)oxy)methyl heptanoate] | 17600 | 8.56 |

From US20250122219A1 (priority 2023, published 2025)
